Assay results from patent publication US20220008359A1, “COMBINATION ANTI-CANCER PRODUCTS AND METHODS” (priority 2020, published 2022).
Marks after values point to notes of the source that are not given here.

Test system: ZR75-1 cells
Test: Immuno-staining of protein expression and protein phosphorylation, ZR75-1 cells
Type: cell-based
Set-up: ATM level / P-317 (ULK1) level / Beclin1 level / ATG5 level / HDAC8 level / BIM level: scale not given here
Procedure: ZR75-1 and MCF7 cells were treated with vehicle control, GZ17-6.02, Palbociclib or the drugs combined for 3 hours and for 6 hours. Cells were fixed in place and immuno-staining performed with in house validated antibodies to detect protein expression and protein phosphorylation.

Structure (SMILES): CC(=O)c1c(C)c2cnc(Nc3ccc(N4CCNCC4)cn3)nc2n(C2CCCC2)c1=O [PALBO, Palbociclib]
- AKT level (ZR75, 6 h): 101
- AMPKa level (ZR75, 6 h): 100
- ATG5 level (ZR75, 6 h): 114#
- ATG13 level (ZR75, 6 h): 100
- ATM level (ZR75, 6 h): 100
- BAK level (ZR75, 6 h): 109
- BAX level (ZR75, 6 h): 108
- BCL-XL level (ZR75, 6 h): 91
- BIM level (ZR75, 6 h): 113#
- Beclin1 level (ZR75, 6 h): 118#
- CD95 level (ZR75, 6 h): 101
- CHOP level (ZR75, 6 h): 109
- Cyclin D level (ZR75, 6 h): 107
- Cyclin E level (ZR75, 6 h): 105
- ER level (ZR75, 6 h): 99
- ERBB1 level (ZR75, 6 h): 100
- ERBB2 level (ZR75, 6 h): 100
- ERBB3 level (ZR75, 6 h): 99
- ERK1/2 level (ZR75, 6 h): 100
- ERK2 level (ZR75, 6 h): 99
- ERRB4 level (ZR75, 6 h): 99
- FAS-L level (ZR75, 6 h): 109
- GRP78 level (ZR75, 6 h): 112
- HDAC1 level (ZR75, 6 h): 102
- HDAC2 level (ZR75, 6 h): 95
- HDAC3 level (ZR75, 6 h): 97
- HDAC4 level (ZR75, 6 h): 100
- HDAC5 level (ZR75, 6 h): 101
- HDAC6 level (ZR75, 6 h): 98
- HDAC7 level (ZR75, 6 h): 102
- HDAC8 level (ZR75, 6 h): 99
- HDAC9 level (ZR75, 6 h): 101
- HDAC10 level (ZR75, 6 h): 100
- HDAC11 level (ZR75, 6 h): 100
- IDO1 level (ZR75, 6 h): 100
- JAK2 level (ZR75, 6 h): 100
- JNK1/2 level (ZR75, 6 h): 100
- LATS1/2 level (ZR75, 6 h): 99
- MCL1 level (ZR75, 6 h): 91
- MHCA level (ZR75, 6 h): 103
- NEDD4 level (ZR75, 6 h): 97
- NFkB level (ZR75, 6 h): 101
- ODC level (ZR75, 6 h): 98
- P-89 (TAZ) level (ZR75, 6 h): 101
- P-109 (YAP) level (ZR75, 6 h): 105
- P-127 (YAP) level (ZR75, 6 h): 106
- P-317 (ULK1) level (ZR75, 6 h): 114#
- P-397 (YAP) level (ZR75, 6 h): 99
- P-757 (ULK1) level (ZR75, 6 h): 97
- P-909 (LATS1/2) level (ZR75, 6 h): 109
- P-1079 (LATS1/2) level (ZR75, 6 h): 102
- P-AMPKa level (ZR75, 6 h): 117#
- P-ATG13 level (ZR75, 6 h): 121#
- P-ATM level (ZR75, 6 h): 109
- P-ERBB1 level (ZR75, 6 h): 100
- P-ERBB2 level (ZR75, 6 h): 98
- P-ERBB3 level (ZR75, 6 h): 116#
- P-ERBB4 level (ZR75, 6 h): 101
- P-ERK level (ZR75, 6 h): 99
- P-JAK2 level (ZR75, 6 h): 99
- P-JNK level (ZR75, 6 h): 88
- P-KIT level (ZR75, 6 h): 100
- P-MET level (ZR75, 6 h): 99
- P-NFkB level (ZR75, 6 h): 98
- P-PDGFRb level (ZR75, 6 h): 98
- P-PERK level (ZR75, 6 h): 111
- P-S2448 (mTOR) level (ZR75, 6 h): 98
- P-S2481 (mTOR) level (ZR75, 6 h): 98
- P-T308 (AKT) level (ZR75, 6 h): 106
- P-Y694 (STAT5) level (ZR75, 6 h): 99
- P-Y705 (STAT3) level (ZR75, 6 h): 99
- P-eIF2a level (ZR75, 6 h): 109
- P-p38 level (ZR75, 6 h): 100
- P-p70 T389 level (ZR75, 6 h): 101
- PD-L1 level (ZR75, 6 h): 99
- PD-L2 level (ZR75, 6 h): 104
- PDGFRb level (ZR75, 6 h): 100
- PERK level (ZR75, 6 h): 99
- PP1 level (ZR75, 6 h): 99
- PTEN level (ZR75, 6 h): 101
- STAT3 level (ZR75, 6 h): 99
- STAT5 level (ZR75, 6 h): 99
- TAZ level (ZR75, 6 h): 102
- ULK1 level (ZR75, 6 h): 100
- Y416 (c-SRC) level (ZR75, 6 h): 102
- Y527 (c-SRC) level (ZR75, 6 h): 98
- YAP level (ZR75, 6 h): 99
- c-KIT level (ZR75, 6 h): 100
- c-MET level (ZR75, 6 h): 101
- c-SRC level (ZR75, 6 h): 101
- eIF2a level (ZR75, 6 h): 100
- mTOR level (ZR75, 6 h): 100
- p38 level (ZR75, 6 h): 99
- p70 S6K level (ZR75, 6 h): 99
- P-ERBB3 level (ZR75, 6 h, listed as Palbo): 116
- increase in the levels of cyclin D and cyclin E (ZR75 and MCF7, 3 h and 6 h, trend): 5-10%
